According to patent US20100003217A1, “Compounds and Pharmaceutical Compositions for the Treatment of Viral Infections” (priority 2008, published 2010):
Blank lines part the entries; values can stand above or below the molecule they belong to.

Legend:
[1] = target: CYP1A2 (Homo sapiens, UniProt P05177); test: Incubation with human recombinant CYP450 supersomes, 1A2; assay type: in vitro ADME; settings: CYP450 1A2 supersomes, 60 min, 10 μM, average of two experiments
Procedure: (§1) Supersomes—Incubations were conducted in a final volume of 0.1 mL reaction buffer (50-100 mM potassium phosphate, pH 7.4 or 100 mM Tris-HCL, pH 7.4) according to protocol provided with each CYP450 supersome. Each reaction contained […] of CYP450 supersome, 1.3 mM NADP^+, 3.3 mM glucose-6-phosphate, 0.4 U/mL glucose-6-phosphate dehydrogenase, 3.3 mM MgCl2 and 10 μM Compound 1. Following incubation for 60 min at 37° C., 100 μL of stop solution (acetonitrile:methanol; 1:1) was added and samples centrifuged for 10 min at 10,000×g. The supernatant was then dried and reconstituted in 10 mM potassium phosphate, pH 5, further transferred to an HPLC glass vial and analyzed by HPLC-UV (described above).

[2] = Rat plasma pharmacokinetics of total radioactivity after [^14C]-Compound 1; assay type: in vivo, male Sprague-Dawley rats
Procedure: A preliminary rat metabolism study was conducted with radiolabeled Compound 1. The compound was labeled with [^14C] in the C-8 position of the guanine moiety. The objectives of the study were to determine, 1) the plasma pharmacokinetics of total radioactivity, 2) the time-course of total radioactivity and the amount of 2′-C-methyl guanosine-5′-TP in liver, 3) the major route of excretion, and 4) the metabolic profile in excreta, liver, and plasma.
Isotopically diluted [^14C]-Compound 1 was administered intravenously to male Sprague-Dawley rats at 50 mg/kg or by oral gavage at 100 mg/kg.
The plasma concentration-time data for total radioactivity was analyzed using Microsoft® Office Excel 2003 to obtain the area under the concentration-time curve (AUC). AUC0-24 (area under the concentration-time curve from 0 to 24 h after dosing) was calculated using the linear trapezoidal rule and nominal sampling times. For the IV dose group, concentration at time zero was extrapolated from the concentration data for the first two time points. The maximum (peak) plasma concentrations (Cmax) and the time to peak concentrations (tmax) were the observed values. Descriptive statistics were prepared in Excel.
Radioanalyses of plasma samples were conducted. The plasma concentration data for total radioactivity expressed as μg equivalents/mL are summarized below: […]

[3] = system: HCV genotype 1b replicon (GS4.1 cells); test: In vitro combination of Compound 1 and ribavirin on HCV replicon (NS4A ELISA; MacSynergy II, CombiTool, CalcuSyn); assay type: cell-based; settings: Hepatitis C virus, 72 h, single-drug titration experiments, three days
Procedure: This setup was run in duplicate in each 96-well plate.
Cells were incubated with inhibitors for three days at 37° C./5% CO2.
After three days of drug treatment, media was removed from the plates via gentle tapping and the cells were fixed to the plates with 100 μL/well of 1:1 acetone:methanol.
After one minute of incubation at room temperature, plates were washed three times with 100 μL/well of ELISA wash solution and then blocked with 150 μL/well of 10% FBS-TNE.
After a one hour incubation period at 37° C., each plate was washed three times with 100 μL/well of ELISA wash solution. Color development was then initiated with 100 μL/well of OPD solution.
After a 30 minute incubation period in the dark at room temperature, reactions were stopped by adding 100 μL of 2NH2SO4 to each well.
The absorbance was measured at 490 nm on a Victor^3 V 1420 multilabel counter (Perkin Elmer).

[4] = target: CYP2C9 (Homo sapiens, UniProt P11712); test: Incubation with human recombinant CYP450 supersomes, 2C9; assay type: in vitro ADME; settings: CYP450 2C9 supersomes, 60 min, 10 μM, average of two experiments
Procedure: as §1

[5] = Metabolite profile in rat plasma; assay type: in vivo, male Sprague-Dawley rats; settings: rat terminal plasma, IV (2, 6, 24 h) and PO (6 h)
Procedure: Pooled terminal rat plasma samples were prepared for Group 1A, Group 1C, and Groups 2A-C. The pools were prepared by combining 1 mL of plasma from each of the four animals. Subsamples (2 mL each) of the pooled samples were transferred to 15-mL conical centrifuge tubes for extraction. To each subsample, 6 mL of methanol were added and each mixture was vortexed vigorously and then centrifuged at 5700×g for 15 minutes. The supernatant (extract 1) was transferred to a 15-mL tube. The pellets were further extracted with methanol (2 mL). Each sample was vortexed thoroughly to ensure mixing. The samples were centrifuged as described above. The supernatant (extract 2) was removed. The total volume of each extract was recorded. […] All extracts and reconstituted extracts were analyzed by LSC. Reconstituted extracts containing sufficient radioactivity were analyzed by HPLC.
Terminal plasma samples were pooled, extracted and prepared for HPLC analysis as described above. For Group 1, terminal plasma samples (2, 6, and 24 h) were pooled and analyzed by HPLC as described above. For Group 2, only the 6-h sample had sufficient radioactivity for analysis. […]

[6] = system: human primary hepatocytes; test: In vitro intracellular half-life of 2′-C-methyl guanosine-5′-triphosphate (Compound 7) in human primary hepatocytes; assay type: in vitro ADME; settings: for Decay of Compound 7: level in cellular extracts: human hepatocytes Hu775; for Compound 7 levels after 24 hours without drug / reduction of Compound 7 levels after 24 hours without drug / Compound 7 levels at time zero: human hepatocytes
Procedure: (§2) Primary hepatocytes were incubated with 10 μM [^14C]-Compound 1 ([…]) or [^14C]-2′-C-methyl guanosine (127 DPM/μmol) for 24 hours at which time the incubation medium was removed and the cell monolayer carefully washed two times with warm (37° C.) PBS and placed back in culture with drug-free medium. At selected times up to 24 hours, the medium was removed and the cell monolayers carefully washed two times with ice-cold PBS. Following the last wash, all PBS was carefully removed and the cell monolayers processed and extracted as previously described. […]

[7] = as above; assay type: in vitro ADME; settings: human, primary hepatocytes (cellular extracts)
Procedure: as §2

[8] = [^14C]-2′-C-methyl guanosine removed

Sequence of CYP2C9 (P11712 whole entry): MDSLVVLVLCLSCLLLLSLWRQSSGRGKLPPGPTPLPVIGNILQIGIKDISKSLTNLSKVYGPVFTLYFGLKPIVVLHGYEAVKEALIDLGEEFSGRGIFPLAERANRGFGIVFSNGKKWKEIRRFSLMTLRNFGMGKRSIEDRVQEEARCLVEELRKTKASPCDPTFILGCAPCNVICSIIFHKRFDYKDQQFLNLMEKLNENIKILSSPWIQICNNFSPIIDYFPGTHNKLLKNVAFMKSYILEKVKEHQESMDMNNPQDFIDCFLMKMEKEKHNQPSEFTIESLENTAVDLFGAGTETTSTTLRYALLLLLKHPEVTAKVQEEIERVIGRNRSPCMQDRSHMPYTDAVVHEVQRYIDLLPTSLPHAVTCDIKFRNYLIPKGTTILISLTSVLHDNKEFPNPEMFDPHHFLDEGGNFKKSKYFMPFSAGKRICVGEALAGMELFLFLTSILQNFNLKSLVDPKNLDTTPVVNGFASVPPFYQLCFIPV
Sequence of CYP1A2 (P05177 whole entry): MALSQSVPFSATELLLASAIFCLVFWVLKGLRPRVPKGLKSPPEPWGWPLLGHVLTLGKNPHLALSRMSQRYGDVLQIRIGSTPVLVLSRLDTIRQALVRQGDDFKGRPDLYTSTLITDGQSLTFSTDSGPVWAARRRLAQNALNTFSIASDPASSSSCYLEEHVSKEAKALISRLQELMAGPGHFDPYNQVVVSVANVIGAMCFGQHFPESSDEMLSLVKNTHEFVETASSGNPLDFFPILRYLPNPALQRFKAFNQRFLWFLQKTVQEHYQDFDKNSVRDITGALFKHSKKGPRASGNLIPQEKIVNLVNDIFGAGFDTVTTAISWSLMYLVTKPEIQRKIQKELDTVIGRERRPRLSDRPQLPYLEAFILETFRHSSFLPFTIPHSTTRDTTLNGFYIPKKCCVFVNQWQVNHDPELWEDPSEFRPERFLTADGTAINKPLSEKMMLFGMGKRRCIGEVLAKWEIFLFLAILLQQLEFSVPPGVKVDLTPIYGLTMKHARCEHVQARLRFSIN

Structure (SMILES): CC(C)(CO)C(=O)SCCOP(=O)(NCc1ccccc1)OC[C@H]1O[C@@H](n2cnc3c(=O)[nH]c(N)nc32)[C@](C)(O)[C@@H]1O (mixture of isomers) [Compound 1, 3-hydroxy-2,2-dimethyl-thiopropionic acid S-(2-{[(2R,3R,4R,5R)-5-(2-amino-6-oxo-1,6-dihydro-purin-9-yl)-3,4-dihydroxy-4-methyl-tetrahydro-furan-2-ylmethoxy]-benzylamino-phosphoryloxy}-ethyl) ester]
- % Residual Compound 1 [1]: 104%
- AUC0-24 of plasma total radioactivity ([2]; IV 50 mg/kg [^14C]-Compound 1): 36.0 hr.μg equivalent/mL
- AUC0-24 of plasma total radioactivity ([2]; PO 100 mg/kg [^14C]-Compound 1): 15.4 hr.μg equivalent/mL
- EC50 [3]: 400 ± 90 nM
- % Residual Compound 1 [4]: 109%

- Plasma metabolites detected [5]: only detectable metabolite
Structure (SMILES): C[C@@]1(O)[C@H](O)[C@@H](CO)O[C@H]1n1cnc2c(=O)[nH]c(N)nc21 [2′-C-methyl guanosine, 9-(2-C-methyl-β-D-ribofuranosyl)guanine, reference compound]

- Decay of Compound 7: level in cellular extracts ([6]; after 24 h incubation with 10 μM [^14C]-2′-C-methyl guanosine, decay time 0 h): 266 pmol/million cells
- Decay of Compound 7: level in cellular extracts ([6]; after 24 h incubation with 10 μM [^14C]-2′-C-methyl guanosine, decay time 1 h): 259 pmol/million cells
- Decay of Compound 7: level in cellular extracts ([6]; after 24 h incubation with 10 μM [^14C]-2′-C-methyl guanosine, decay time 4 h): 217 pmol/million cells
- Decay of Compound 7: level in cellular extracts ([6]; after 24 h incubation with 10 μM [^14C]-2′-C-methyl guanosine, decay time 8 h): 190 pmol/million cells
- Decay of Compound 7: level in cellular extracts ([6]; after 24 h incubation with 10 μM [^14C]-2′-C-methyl guanosine, decay time 24 h): 58.0 pmol/million cells
- Decay of Compound 7: level in cellular extracts ([6]; after 24 h incubation with 10 μM [^14C]-Compound 1, decay time 0 h): 692 pmol/million cells
- Decay of Compound 7: level in cellular extracts ([6]; after 24 h incubation with 10 μM [^14C]-Compound 1, decay time 1 h): 702 pmol/million cells
- Decay of Compound 7: level in cellular extracts ([6]; after 24 h incubation with 10 μM [^14C]-Compound 1, decay time 4 h): 597 pmol/million cells
- Decay of Compound 7: level in cellular extracts ([6]; after 24 h incubation with 10 μM [^14C]-Compound 1, decay time 8 h): 497 pmol/million cells
- Decay of Compound 7: level in cellular extracts ([6]; after 24 h incubation with 10 μM [^14C]-Compound 1, decay time 24 h): 273 pmol/million cells
- Compound 7 levels after 24 hours without drug [6, 8]: 58 pmol/million cells
- reduction of Compound 7 levels after 24 hours without drug [6, 8]: 78%
- Compound 7 levels after 24 hours without drug ([6]; [^14C]-Compound 1 removed): 273 pmol/million cells
- reduction of Compound 7 levels after 24 hours without drug ([6]; [^14C]-Compound 1 removed): 61%
- Compound 7 levels at time zero ([6]; after 24 h with 10 μM [^14C]-Compound 1): 692 pmol/million cells
- Compound 7 levels at time zero ([6]; after 24 h with [^14C]-2′-C-methyl guanosine): 266 pmol/million cells
- half-life at 10 μM ([7]; in vitro half-life for Compound 7, human hepatocytes, after 2′-C-methyl guanosine): 10.8 h
- half-life at 10 μM ([7]; in vitro half-life for Compound 7, human hepatocytes, following [^14C]-Compound 1): 17.4 h
- half-life at 10 μM ([7]; in vitro intracellular t1/2 of Compound 7, human hepatocytes Hu775, after 24 h incubation with 10 μM [^14C]-2′-C-methyl guanosine, linear regression): 10.8 h
- half-life at 10 μM ([7]; in vitro intracellular t1/2 of Compound 7, human hepatocytes Hu775, after 24 h incubation with 10 μM [^14C]-Compound 1, linear regression): 17.4 h
Structure (SMILES): C[C@@]1(O)[C@H](O)[C@@H](COP(=O)(O)OP(=O)(O)OP(=O)(O)O)O[C@H]1n1cnc2c(=O)[nH]c(N)nc21 [Compound 7, [(2R)-2-methyl-β-D-ribofuranosyl]guanine 5′-triphosphate]
